Data reported in BindingDB's records for doi:10.1016/j.bmcl.2008.01.127 (Johnson & Johnson Pharmaceutical Research and Development, 2008).
pIC50: −log10 of the molar value.

Assay: Antagonist activity at rabbit CXCR2 by neutrophil chemotaxis assay

SMILES | pIC50
CS(=O)(=O)NC(=O)NCCc1c(-c2ccc(F)cc2)[nH]c2ccc(Br)cc12 [1-(2-(5-bromo-2-(4-fluorophenyl)-1H-indol-3-yl)ethyl)-3-(methylsulfonyl)urea] | 5.24
O=C(NCCc1c(-c2ccc(F)cc2)[nH]c2ccc(Br)cc12)NS(=O)(=O)c1ccccc1 [1-(2-(5-bromo-2-(4-fluorophenyl)-1H-indol-3-yl)ethyl)-3-(phenylsulfonyl)urea] | 5.77
CN(C)S(=O)(=O)NC(=O)CCCc1c(-c2ccc(F)cc2)[nH]c2ccc(C#N)cc12 [4-[5-cyano-2-(4-fluorophenyl)-1H-indol-3-yl]-N-(dimethylsulfamoyl)butanamide] | 6.15

Now from value to compound:

pIC50 | SMILES
5.68 | CS(=O)(=O)NC(=O)CCCc1c(-c2ccc(F)cc2)[nH]c2ccc(C#N)cc12 [4-(5-cyano-2-(4-fluorophenyl)-1H-indol-3-yl)-N-(methylsulfonyl)butanamide]
5.52 | N#Cc1ccc2[nH]c(-c3ccc(F)cc3)c(CCCC(=O)NS(=O)(=O)C(F)(F)F)c2c1 [4-(5-cyano-2-(4-fluorophenyl)-1H-indol-3-yl)-N-(trifluoromethylsulfonyl)butanamide]
5.89 | CNS(=O)(=O)NC(=O)CCCc1c(-c2ccc(F)cc2)[nH]c2ccc(C#N)cc12 [4-[5-cyano-2-(4-fluorophenyl)-1H-indol-3-yl]-N-[(methylamino)sulfonyl]butanamide]
